Where two headings read alike, the source gives them in different places.
Columns and labels:
[1] = test system: SARS-CoV-2 B.1.351 variant
[2] = test system: SARS-CoV-2 B.1.351 variant; test: microbe, parasite or virus in culture; details: Severe acute respiratory syndrome coronavirus 2, A549-ACE2, 48 h, read-out: IC50, SARS-CoV-2 B.1.351
[3] = test system: SARS-CoV-2 B.1.351 variant; test: microbe, parasite or virus in culture; format: cell-based; details: Severe acute respiratory syndrome coronavirus 2, Huh-7.5.1, 48 h, read-out: IC50, SARS-CoV-2 B.1.351 in Huh7.5.1 cells

CNC(=O)c1cc(Oc2ccc(NC(=O)Nc3ccc(Cl)c(C(F)(F)F)c3)cc2)ccn1 [Sorafenib]
Inhibitory effect in B.1.351-infected cells (in words) [1]: exerted inhibitory effects
SI (CC50/IC50), SARS-CoV-2 B.1.351 [1]: 7.6
IC50 [2]: 1700 nM

COc1cc2c(cc1OC)[C@@H]1C(=O)c3ccc4c(c3O[C@@H]1CO2)C=CC(C)(C)O4 [Deguelin]
Inhibitory effect in B.1.351-infected cells (in words) [1]: exerted inhibitory effects
SI (CC50/IC50), SARS-CoV-2 B.1.351 [1]: 7.44
IC50 [2]: 4670 nM

COc1ccc2cc1Oc1ccc(cc1)C[C@H]1c3c(cc4c(c3Oc3cc5c(cc3OC)CCN(C)[C@@H]5C2)OCO4)CCN1C [Cepharanthine]
IC50 [3]: 60 nM
Inhibitory effect in B.1.351-infected cells (in words) [1]: exerted inhibitory effects
SI (CC50/IC50), SARS-CoV-2 B.1.351 [1]: 128.83
IC50 [2]: 240 nM

CN1CCN(CCCN2c3ccccc3Sc3ccc(C(F)(F)F)cc32)CC1 [Trifluoperazine]
Inhibitory effect in B.1.351-infected cells (in words) [1]: exerted inhibitory effects
SI (CC50/IC50), SARS-CoV-2 B.1.351 [1]: 13.25
IC50 [2]: 2790 nM
